Key:
SK-OV-3 cells = assay: GSH levels and glutathione- and oxidative stress-related enzyme activities in SK-OV-3 cells growing in vivo; design: species or system human; conditions: SK-OV-3, in vivo Pter, day 49
Description: (§1) To measure enzyme activity, isolated tumor cells were homogenized in 0.1 M phosphate buffer (pH 7.2) at 4° C. GCL and GSS activities were measured as described previously (Obrador, E. et al. Hepatology 35, 74-81 (2002)). GPX (selenium dependent) activity was measured as described by Flohé and Gunzler (Flohe, L. & Gunzler, W. A. Methods Enzymol 105, 114-121 (1984)) using H2O2 as a substrate. GSR activity was determined as described by Akerboom and Sies (Akerboom, T. P. et al, Bull Eur Physiopathol Respir 17 Suppl, 221-227 (1981)). GGT activity was measured as described previously (Obrador, E. et al. Hepatology 35, 74-81 (2002)). GST activity was measured using an assay kit from Sigma. TXNRD activity, defined by the concentration of sodium-lipoate (disulfide) reduced to dehydrolipoate (dithiol) per milligram protein, was measured as previously described (Javvadi, P. et al. Cancer Res 70, 1941-1950 (2010)). SOD activity was measured as described by Flohé and Otting (Flohe, L. & Otting, F. Methods Enzymol 105, 93-104 (1984).) using 2 mM cyanide in the assay medium to distinguish mangano-type enzyme (SOD2) from the cuprozinc type (SOD1). CAT activity was analyzed as described by Aebi (Aebi, H. Methods Enzymol 105, 121-126 (1984)). NOX activity was measured by chemiluminescence following the methodology of Wind et al. (Wind, S. et al. Comparative pharmacology of chemically distinct NADPH oxidase inhibitors. Br J Pharmacol 161, 885-898 (2010)). Protein concentration was determined with the Pierce BCA protein assay (Fisher Scientific, Waltham, Mass.).
(§2) GSH, GSSG, NADP^+ and NADPH Determination.
(§3) GSH and GSSG were determined, following procedures previously described (Obrador, E. et al. PLoS One 9, e96466 (2014)), by LC/MS using the same equipment described above for pterostilbene determination. Cell processing was performed according to published methodology, where rapid N-ethylmaleimide derivatization was used to prevent GSH auto-oxidation (Asensi, M. et al. Anal Biochem 217, 323-328 (1994)). NADP^+ and NADPH were quantitated using an assay kit from Sigma (St. Louis, Mo.).
(§4) Isolation of Tumor Cells from Mouse Xenografts Using Enzymatic Digestion and a double Ficoll gradient.
(§5) To maximize the amount of isolated cells, avoiding the use of RFP-transfected cells and subsequent laser microdissection, an alternative methodology was set up. To maximize cell yield and viability the following combination of enzymes was used: collagenase III (200 U/ml; Sigma-Aldrich), DNase I (200 U/ml; Sigma-Aldrich) and trypsin (5 mg/ml; Invitrogen), and a non-enzymatic dissociation buffer (NEDB, Invitrogen). Briefly, mice were killed, and tumors were removed (avoiding skin, muscle and fat) into cold culture media and processed immediately. The tumors were minced into 1-3 mm fragments, which were then incubated with the dissociation solution (see above) for 30 min at 37° C. The tumor fragments were mixed up and down every 10 min using a […] micropipette with a tip cut to a diameter adapted to tissue fragment size. After each incubation period, the fragments were filtered through a […] nylon mesh cell strainer (BD Biosciences, San Diego, Calif., USA). The released cells were centrifuged at 1200 r.p.m. for 2 min and stored in cold CO2-independent medium with 30% FCS at […]. Fresh dissociation solution was added to the remaining tissue fragments for 30 min. Dissociation was stopped when no additional cells were released. The fragments were pushed through a sieve and all cells from all incubation periods were pooled and counted.
(§6) The dissociated cells were layered onto a double Ficoll gradient (Histopaque; Sigma-Aldrich; densities 1.077 and 1.119) and spun at 700 g for 30 min at room temperature. Cells removed from both interfaces were pooled and washed two times in CO2-independent medium and stored at 4° C. Debris and red blood cell elimination was improved with the dual-density gradient. […]

HepG2 cells = assay: GSH levels and glutathione- and oxidative stress-related enzyme activities in HepG2 cells growing in vivo; design: species or system human; conditions: HepG2, in vivo Pter, day 35
Description: as §1, §2, §3, §4, §5, §6

Structure (SMILES): COc1cc(/C=C/c2ccc(O)cc2)cc(OC)c1 [Pter, trans-3,5-dimethoxy-4′-hydroxystilbene]
- CAT (SK-OV-3 cells): 1.8 ± 0.4 mU/10^6 cells
- GCL (SK-OV-3 cells): 18 ± 6 mU/10^6 cells
- GSH (SK-OV-3 cells): 1.5 ± 0.7 nmol/10^6 cells
- GSS (SK-OV-3 cells): 1.6 ± 0.4 mU/10^6 cells
- GSSG (SK-OV-3 cells): 0.2 ± 0.05 nmol/10^6 cells
- SOD1 (SK-OV-3 cells): 0.1 ± 0.03 U/10^6 cells
- SOD2 (SK-OV-3 cells): 0.01 ± 0.005 U/10^6 cells
- CAT (HepG2 cells): 1.1 ± 0.3 mU/10^6 cells
- GCL (HepG2 cells): 50 ± 15 mU/10^6 cells
- GSH (HepG2 cells): 8.5 ± 2.6 nmol/10^6 cells
- GSS (HepG2 cells): 4.8 ± 0.9 mU/10^6 cells
- GSSG (HepG2 cells): 0.3 ± 0.1 nmol/10^6 cells
- SOD1 (HepG2 cells): 0.1 ± 0.02 U/10^6 cells
- SOD2 (HepG2 cells): 0.02 ± 0.01 U/10^6 cells

— patent US11179348B2, “Combination comprising pterostilbene for the treatment of cancer” (FUNDACIÓN UNIVERSIDAD CATÓLICA DE VALENCIA SAN VICENTE …, priority 2015, dated 2021)
